Measurements as given in article PMC5685639, “A trehalose biosynthetic enzyme doubles as an osmotic stress sensor to regulate bacterial morphogenesis” (PLoS Genetics, 2017).

Biological target: T1, OtsA (Arthrobacter alpinus, UniProt C7EZF1)
T1 construct: recombinant, expressed in and purified from E. coli; self-assembles into large networks
T1 sequence (C7EZF1 1-495): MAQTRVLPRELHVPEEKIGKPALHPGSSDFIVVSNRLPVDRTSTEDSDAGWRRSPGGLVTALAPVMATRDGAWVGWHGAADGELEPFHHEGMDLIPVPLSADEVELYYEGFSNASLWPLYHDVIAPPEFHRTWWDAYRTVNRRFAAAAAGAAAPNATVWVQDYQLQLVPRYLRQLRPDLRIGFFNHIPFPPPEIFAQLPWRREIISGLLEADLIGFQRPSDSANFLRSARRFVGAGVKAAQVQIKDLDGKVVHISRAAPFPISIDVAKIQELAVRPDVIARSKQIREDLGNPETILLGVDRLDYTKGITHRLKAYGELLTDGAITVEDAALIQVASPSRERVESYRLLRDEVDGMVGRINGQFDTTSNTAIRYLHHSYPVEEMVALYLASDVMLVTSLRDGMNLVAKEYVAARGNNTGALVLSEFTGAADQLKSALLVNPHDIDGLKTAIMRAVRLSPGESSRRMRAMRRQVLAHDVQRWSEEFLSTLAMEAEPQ
Assay: dynamic light scattering, self-assembly promoted by T6P
Assay type: binding
Settings: 10 uM OtsA, 20 mM Tris HCl pH 7.5, 1 mM MgCl2, 1 M urea, 20 °C; up to 500 uM T6P; T6P is also the enzyme product

In the case of `O=P(O)(O)OC[C@H]1O[C@H](O[C@H]2O[C@H](CO)[C@@H](O)[C@H](O)[C@H]2O)[C@H](O)[C@@H](O)[C@@H]1O` [T6P, trehalose-6-phosphate], the “dynamic light scattering, self-assembly promoted by T6P” value is reported as “increasing concentrations of this metabolite had a dramatic effect on promoting the rate of OtsA polymerization”.
